Values of other authors in patent US20150133416A1, “Pharmaceutical Composition Comprising Abiraterone Acetate” (Jagotec AG, priority 2012, published 2015).
Read-outs that look alike come from different tables or passages of the source.

Assays:
[1] = not given; remark: listed apart in the source
[2] = 20 mg delayed release capsules administered with apple sauce

aqueous solubility	log P	AUC elevation compared with the fasted state ([1]; after a high fat meal)	Cmax elevation compared with the fasted state ([1]; after a high fat meal)	AUC elevation compared with the fasted state ([1]; after a low fat meal)	Cmax elevation compared with the fasted state ([1]; after a low fat meal)	reduction in Cmax [2]	SMILES
poor	very high	10 fold	17 fold	5 fold	7 fold	–	C[C@]12CC[C@H](O)CC1=CC[C@@H]1[C@@H]2CC[C@]2(C)C(c3cccnc3)=CC[C@@H]12 [abiraterone]
–	–	–	–	–	–	25%	COc1ccc2[nH]c([S+]([O-])Cc3ncc(C)c(OC)c3C)nc2c1 (stereo not shown) [omeprazole]
